This assay addresses T1, SIRT1 (Homo sapiens, UniProt Q96EB6).
T1 sequence (Q96EB6 1-747): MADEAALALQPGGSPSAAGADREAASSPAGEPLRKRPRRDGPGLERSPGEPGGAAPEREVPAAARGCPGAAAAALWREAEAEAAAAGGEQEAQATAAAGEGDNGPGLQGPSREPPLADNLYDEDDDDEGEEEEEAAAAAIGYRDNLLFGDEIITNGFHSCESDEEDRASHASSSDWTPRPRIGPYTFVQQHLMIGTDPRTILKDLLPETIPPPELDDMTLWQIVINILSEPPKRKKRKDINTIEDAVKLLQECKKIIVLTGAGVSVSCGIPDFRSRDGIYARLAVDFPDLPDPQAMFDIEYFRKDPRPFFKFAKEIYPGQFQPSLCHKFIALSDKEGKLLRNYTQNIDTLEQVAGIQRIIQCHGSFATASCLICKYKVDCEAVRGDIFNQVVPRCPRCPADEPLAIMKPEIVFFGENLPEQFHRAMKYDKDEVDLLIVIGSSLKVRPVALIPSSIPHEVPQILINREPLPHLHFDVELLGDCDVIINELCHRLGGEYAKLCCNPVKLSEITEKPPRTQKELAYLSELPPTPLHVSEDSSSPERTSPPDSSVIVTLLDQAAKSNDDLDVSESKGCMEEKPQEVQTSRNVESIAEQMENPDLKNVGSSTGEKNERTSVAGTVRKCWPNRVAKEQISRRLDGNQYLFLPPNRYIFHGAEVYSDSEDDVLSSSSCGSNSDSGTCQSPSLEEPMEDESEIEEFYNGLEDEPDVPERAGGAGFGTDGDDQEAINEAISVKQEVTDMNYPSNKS
In words: Trp mass spectrometry assay of SIRT1 activation (Ac-R-H-K-K(Ac)-W-NH2 peptide). Format: biochemical. As to conditions: for Emax: 25 min, read-out: TRP MAX RESP (percent maximum fold activation). The method in brief:
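N-terminal His-tagged human SIRT1, expressed in BL21(DE3) and purified, was incubated 25 min with an acetylated Trp peptide and NAD plus test compound at varying concentrations, then quenched with formic acid. OAADPR or deacetylated peptide was quantified by mass spectrometry versus compound-free control; EC1.5 is the concentration giving 50% activity increase, with percent maximum activation.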

[1] abbreviates: Trp peptide 0.5 μM, 120 μM βNAD+, 10 nM SIRT1, 25 min at 25° C., relative to control (100%).
The mark [2] stands for this setting: Trp peptide 0.5 μM, 120 μM βNAD+, 10 nM SIRT1, 25 min at 25° C.

The source of these data is US10072011B2, “Substituted bridged urea analogs as sirtuin modulators” (GlaxoSmithKline Intellectual Property (No.2) Limited, priority 2014, dated 2018).

Read-outs that look alike come from different tables or passages of the source.

For the compound `O=C(NCc1ccccc1)c1ccc2c(n1)N(C(=O)Nc1cc(OC[C@H](O)CO)ccn1)[C@H]1CCN2C1` [Example 171, (4S)—N7-benzyl-N5-(4-((R)-2,3-dihydroxypropoxy)pyridin-2-yl)-3,4-dihydro-1,4-methanopyrido[2,3-b][1,4]diazepine-5,7(2H)-dicarboxamide], the Emax under setting [1] is > 150%. Also, the “TRP Activity (EC1.5, concentration of test compound that results in 150% activation of SIRT1)” value under setting [2] is “A (EC1.5<1 μM)”.

Turning to `C[C@@H](NC(=O)c1ccc2c(n1)N(C(=O)Nc1cc3c(cn1)OCCC3)[C@H]1CCN2C1)C(F)(F)F` [Example 138, (4S)—N5-(3,4-dihydro-2H-pyrano[2,3-c]pyridin-6-yl)-N7-((R)-1,1,1-trifluoropropan-2-yl)-3,4-dihydro-1,4-methanopyrido[2,3-b][1,4]diazepine-5,7(2H)-dicarboxamide], the Emax under setting [1] is > 150%. Under setting [2], the “TRP Activity (EC1.5, concentration of test compound that results in 150% activation of SIRT1)” value was “A (EC1.5<1 μM)”.

With `O=C(c1ccc2c(n1)N(C(=O)Nc1ccccn1)[C@H]1CCN2C1)N1CCC(F)(F)C1` [Example 3, (4S)-7-(3,3-difluoropyrrolidine-1-carbonyl)-N-(pyridin-2-yl)-3,4-dihydro-1,4-methanopyrido[2,3-b] [1, 4] diazepine-5(2H)-carboxamide], under setting [1], the Emax was > 150%. For the same compound, under setting [2], the “TRP Activity (EC1.5, concentration of test compound that results in 150% activation of SIRT1)” value is “B (EC1.5 1-25 μM)”. Take `O=C(NCC1CC1)c1ccc2c(n1)N(C(=O)Nc1ccncn1)[C@H]1CCN2C1` [Example 219, (4S)—N7-(cyclopropylmethyl)-N5-(pyrimidin-4-yl)-3,4-dihydro-1,4-methanopyrido[2,3-b][1,4]diazepine-5,7(2H)-dicarboxamide]: the Emax under setting [1] is > 150%. The “TRP Activity (EC1.5, concentration of test compound that results in 150% activation of SIRT1)” value under setting [2] is “B (EC1.5 1-25 μM)”. Turning to `C[C@@H](NC(=O)c1ccc2c(n1)N(C(=O)Nc1cc(-c3cc[nH]n3)ccn1)[C@H]1CCN2C1)C(F)(F)F` [Example 323, (4S)—N5-(4-(1H-pyrazol-3-yl)pyridin-2-yl)-N7-((R)-1,1,1-trifluoropropan-2-yl)-3,4-dihydro-1,4-methanopyrido[2,3-b][1,4]diazepine-5,7(2H)-dicarboxamide], the Emax under setting [1] is < 150%. Besides, the “TRP Activity (EC1.5, concentration of test compound that results in 150% activation of SIRT1)” value under setting [2] is given as “A (EC1.5<1 μM)”. On the same counts, the results for `C[C@@H](NC(=O)c1ccc2c(n1)N(C(=O)Nc1cc(-c3cnc(C4CC4)s3)ccn1)[C@H]1CCN2C1)C(F)(F)F` [Example 325, (4S)—N5-(4-(2-cyclopropylthiazol-5-yl)pyridin-2-yl)-N7-((R)-1,1,1-trifluoropropan-2-yl)-3,4-dihydro-1,4-methanopyrido[2,3-b][1,4]diazepine-5,7(2H)-dicarboxamide] are < 150% and “A (EC1.5<1 μM)”. On the same counts, the results for `O=C(NC1CC1(F)F)c1ccc2c(n1)N(C(=O)Nc1cc(OC[C@H](O)CO)ccn1)[C@H]1CCN2C1` (single isomer, unassigned) [Example 245] are > 150% and “A (EC1.5<1 μM)”. Regarding `O=C(NCC1(O)CC1)c1ccc2c(n1)N(C(=O)Nc1ccccn1)[C@H]1CCN2C1` [Example 36, (4S)—N7-((1-hydroxycyclopropyl)methyl)-N5-(pyridin-2-yl)-3,4-dihydro-1,4-methanopyrido[2,3-b][1,4]diazepine-5,7(2H)-dicarboxamide], the Emax under setting [1] is > 150%. Moreover, the “TRP Activity (EC1.5, concentration of test compound that results in 150% activation of SIRT1)” value under setting [2] is on record as “B (EC1.5 1-25 μM)”. The corresponding values for `C[C@@H](NC(=O)c1ccc2c(n1)N(C(=O)Nc1cc(-c3cn[nH]c3)ccn1)[C@H]1CCN2C1)C(F)(F)F` [Example 321, (4S)—N5-(4-(1H-pyrazol-4-yl)pyridin-2-yl)-N7-((R)-1,1,1-trifluoropropan-2-yl)-3,4-dihydro-1,4-methanopyrido[2,3-b][1,4]diazepine-5,7(2H)-dicarboxamide] are < 150% and “A (EC1.5<1 μM)”.

Take `O=C(NCC1CC1)c1ccc2c(n1)N(C(=O)Nc1cc3c(cn1)OCCC3)[C@H]1CCN2C1` [Example 145, (4S)—N7-(cyclopropylmethyl)-N5-(3,4-dihydro-2H-pyrano[2,3-c]pyridin-6-yl)-3,4-dihydro-1,4-methanopyrido[2,3-b][1,4]diazepine-5,7(2H)-dicarboxamide]: under setting [1], the Emax was > 150%. The “TRP Activity (EC1.5, concentration of test compound that results in 150% activation of SIRT1)” value under setting [2] is “A (EC1.5<1 μM)”. The corresponding values for `C[C@@H](NC(=O)c1nc2c(cc1F)N1CC[C@@H](C1)N2C(=O)Nc1cc(OC[C@H](O)CO)ccn1)C(F)(F)F` [Example 283, (4S)—N5-(4-((R)-2,3-dihydroxypropoxy)pyridin-2-yl)-8-fluoro-N7-((R)-1,1,1-trifluoropropan-2-yl)-3,4-dihydro-1,4-methanopyrido[2,3-b][1,4]diazepine-5,7(2H)-dicarboxamide] are > 150% and “A (EC1.5<1 μM)”. Turning to `CN(C)NC(=O)c1ccc2c(n1)N(C(=O)Nc1ccccn1)[C@H]1CCN2C1` [Example 201, (4S)-7-(2,2-dimethylhydrazinecarbonyl)-N-(pyridin-2-yl)-3,4-dihydro-1,4-methanopyrido[2,3-b][1,4]diazepine-5(2H)-carboxamide], the Emax is > 150%. The “TRP Activity (EC1.5, concentration of test compound that results in 150% activation of SIRT1)” value under setting [2] is on record as “B (EC1.5 1-25 μM)”. Turning to `Cc1nc(NC(=O)N2c3nc(C(=O)NCC4CC4)ccc3N3CC[C@H]2C3)ccc1F` [Example 112, (4S)—N7-(cyclopropylmethyl)-N5-(5-fluoro-6-methylpyridin-2-yl)-3,4-dihydro-1,4-methanopyrido[2,3-b][1,4]diazepine-5,7(2H)-dicarboxamide], under setting [1], the Emax was > 150%. Further, the “TRP Activity (EC1.5, concentration of test compound that results in 150% activation of SIRT1)” value under setting [2] is listed as “A (EC1.5<1 μM)”. On the same counts, the results for `O=C(NC[C@@H](O)C(F)(F)F)c1ccc2c(n1)N(C(=O)Nc1ccc(F)cn1)[C@H]1CCN2C1` [Example 71, (4S)—N5-(5-fluoropyridin-2-yl)-N7-((R)-3,3,3-trifluoro-2-hydroxypropyl)-3,4-dihydro-1,4-methanopyrido[2,3-b][1,4]diazepine-5,7(2H)-dicarboxamide] are > 150% and “A (EC1.5<1 μM)”.

In the case of `COc1cc2c(nc1C(=O)NCC(F)(F)F)N(C(=O)Nc1ccccn1)[C@H]1CCN2C1` [Example 284, (4S)-8-methoxy-N5-(pyridin-2-yl)-N7-(2,2,2-trifluoroethyl)-3,4-dihydro-1,4-methanopyrido[2,3-b][1,4]diazepine-5,7(2H)-dicarboxamide], the Emax under setting [1] is > 150%. Under setting [2], the “TRP Activity (EC1.5, concentration of test compound that results in 150% activation of SIRT1)” value is “A (EC1.5<1 μM)”. The corresponding values for `O=C(NC1CC1)c1ccc2c(n1)N(C(=O)Nc1cc(OC[C@H](O)CO)ccn1)[C@H]1CCN2C1` [Example 24, (4S)—N7-cyclopropyl-N5-(4-((R)-2,3-dihydroxypropoxy)pyridin-2-yl)-3,4-dihydro-1,4-methanopyrido[2,3-b][1,4]diazepine-5,7(2H)-dicarboxamide] are > 150% and “B (EC1.5 1-25 μM)”. Regarding `C[C@@H](NC(=O)c1ccc2c(n1)N(C(=O)Nc1cc(OC[C@H](O)CO)ccn1)[C@H]1CCN2C1)C(F)(F)F` [Example 74, (4S)—N5-(4-((R)-2,3-dihydroxypropoxy)pyridin-2-yl)-N7-((R)-1,1,1-trifluoropropan-2-yl)-3,4-dihydro-1,4-methanopyrido[2,3-b][1,4]diazepine-5,7(2H)-dicarboxamide], the Emax under setting [1] was > 150%. Turning to `Cc1ncc(-c2ccnc(NC(=O)N3c4nc(C(=O)N[C@H](C)C(F)(F)F)ccc4N4CC[C@H]3C4)c2)s1` [Example 148, (4S)—N5-(4-(2-methylthiazol-5-yl)pyridin-2-yl)-N7-((R)-1,1,1-trifluoropropan-2-yl)-3,4-dihydro-1,4-methanopyrido[2,3-b][1,4]diazepine-5,7(2H)-dicarboxamide], the Emax under setting [1] was > 150%. Moreover, the “TRP Activity (EC1.5, concentration of test compound that results in 150% activation of SIRT1)” value under setting [2] is listed as “A (EC1.5<1 μM)”. On the same counts, the results for `Cc1nc(NC(=O)N2c3nc(C(=O)NC4CC4)ccc3N3CC[C@H]2C3)co1` [Example 255, (4S)—N7-cyclopropyl-N5-(2-methyloxazol-4-yl)-3,4-dihydro-1,4-methanopyrido[2,3-b][1,4]diazepine-5,7(2H)-dicarboxamide] are > 150% and “B (EC1.5 1-25 μM)”.
